Test results taken from the METLIN SMRT retention time set (Domingo-Almenara et al. 2019).

Assay: gradient 5% acetonitrile 3 min, to 50% in 2 min, to 85% in 15 min, held 3 min, 100 µL/min
Settings: column: Zorbax Extend-C18 2.1 x 50 mm; eluents: water / acetonitrile, 0.1% formic acid
Method in brief: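 Using water and acetonitrile that each contained 0.1% formic acid, mixtures of ~100 pure standards were separated at 100 μL/min on a Zorbax Extend-C18 column (2.1 × 50 mm, 1.8 μm). The HPLC fed a quadrupole time-of-flight mass spectrometer working in positive and negative ionization mode, with dead and dwell volumes of 40 μL and 900 μL. Data were acquired over 3 months. Retention time was read from computationally picked adduct peaks after manual inspection of each.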

| SMILES | RP-LC retention time |
| --- | --- |
| CC1(C)CC(=O)N(CC(=O)Nc2c(F)c(F)c(F)c(F)c2F)c2ccccc2S1(=O)=O | 860 s |
| CCOc1ccc(CC(=O)N2CCN(c3ccc(NC(=O)c4ccccc4)nn3)CC2)cc1 | 667 s |
| Cc1ccc(NC(=O)Cn2ccc3ccc(-c4nnc(C)o4)cc32)nc1 | 690 s |
| COc1ccccc1-c1noc(Cn2c(=O)n(C(C)C)c(=O)c3ccccc32)n1 | 994 s |
| O=C(C1CCCN(c2ncnc3c2nc2n3CCCCC2)C1)N1CCN(c2ccc(Cl)cc2)CC1 (stereo not drawn) | 928 s |
| O=C(CN1CCc2[nH]c3c(Cl)cccc3c(=O)c2C1)NCc1ccccc1 | 598 s |
| O=C(Nc1ccc2ncccc2c1)Nc1ccc2ncccc2c1 | 604 s |
| Cc1nnc2ccc(NC(C)C)nn12 | 676 s |
| CCCCCN(CC(=O)N1CCNCC1)C(=O)c1cccc(Br)c1 | 664 s |
| Cc1c(Cl)cccc1-n1nc(C)c2c(C(F)(F)F)cc(OCC(=O)NC(C)C)nc21 | 1160 s |
| O=C(NCC1CCS(=O)(=O)C1)c1cc(-c2cccs2)[nH]n1 (stereo not drawn) | 607 s |
| COc1ccccc1Cn1c(COc2ccccc2OC)nc2ccccc21 | 726 s |
| COC(=O)c1c(C)[nH]c(C(=O)N2CCC(CC(=O)NCCC(C)N3CCCCCC3)CC2)c1C (stereo not drawn) | 604 s |
| CCOc1ccccc1-c1csc(NC(=O)c2sc(COc3cc(C)ccc3C)nc2C)n1 | 1030 s |
| OC(CN1CCN(c2ccccc2)CC1)c1ccc2c(c1)OCO2 (stereo not drawn) | 630 s |
| CCC1CN2C=NC(N3CCN(C(=O)c4ccccc4)CC3)=CC2=N1 (stereo not drawn) | 611 s |
| CCN(CC)S(=O)(=O)c1ccc(-n2cnc(C(=O)NCc3ccc(OC)c(OC)c3)c2)cc1 | 766 s |
| COc1ccccc1-c1csc(-c2nnn(-c3ccccc3)c2N)n1 | 1070 s |
| COc1ccccc1-c1nc(Cn2nnc(-c3nc(-c4ccc(OC(C)C)cc4)no3)c2C)c(C)o1 | 1230 s |
| CSc1ccc(Cl)c(-c2nc(-c3ccc4c(c3)oc(=O)n4C)no2)c1 | 1170 s |
| Cn1c(C(=O)N2CCN(c3ccccc3)CC2)cc2c(=O)oc3ccccc3c21 | 905 s |
| Cc1ncsc1CN1CCC(Oc2ccccc2-c2nc(-c3ccccc3)no2)C1 (stereo not drawn) | 732 s |
| CCc1ccc(NC(=O)Cn2c(N)nc(C)cc2=O)cc1 | 639 s |
| CCCS(=O)(=O)N1CCC(C2CCN(C(=O)NC)CC2)C1 (stereo not drawn) | 659 s |
| COc1ccc(CN2C=C(C(=O)OCc3noc(-c4ccco4)n3)C(C)=NS2(=O)=O)cc1 | 1000 s |
| CCCNC(=O)c1nc(Nc2ccc(CC)cc2)c2ccccc2n1 | 813 s |

| SMILES | RP-LC retention time |
| --- | --- |
| Cc1ccc(-n2nc(C(=O)N3CCN(c4ccccn4)CC3)c3c4ccccc4n(C)c3c2=O)cc1 | 705 s |
| O=C(NCc1ccccn1)C1CCN(c2ncnc3c2oc2ccccc23)CC1 | 593 s |
| O=C(c1ccc2c(c1)OCO2)N1CCCC1c1nc(-c2cccc(C(F)(F)F)c2)no1 (stereo not drawn) | 1080 s |
| O=C(C1CCN(c2nccnc2Sc2ccccc2)CC1)N1CCN(c2ccccn2)CC1 | 682 s |
| O=C(Cn1ccc2c(SCc3ccccc3)nccc21)N1CCN(c2ccccn2)CC1 | 577 s |
| CCn1cc(-c2nc(C)c(C(=O)N3CCN(c4ccccc4)CC3)s2)c2cccnc21 | 994 s |
| Cc1ccc(N2CC(c3noc(-c4cc(C)cc(C)c4)n3)CC2=O)cc1 (stereo not drawn) | 1200 s |
| Cc1ccc2nsnc2c1S(=O)(=O)NCCc1c(C)[nH]c2ccccc12 | 948 s |
| CCCc1ccc(S(=O)(=O)N2CCC3(CC2)CN(C)CC3c2nnc(CC)o2)cc1 (stereo not drawn) | 692 s |
| O=C(CCC(=O)N1CC2CCCN2c2ccccc21)NCc1ccccn1 (stereo not drawn) | 639 s |
| CCn1c(CC2C(=O)Nc3ccc(Br)cc32)nc2ccccc2c1=O (stereo not drawn) | 825 s |
| COCCN1C(=O)CCc2cc(NS(=O)(=O)c3cccs3)ccc21 | 706 s |
| CCN1C(=O)C2(CCN(S(=O)(=O)Cc3ccc(Cl)cc3)CC2)c2ccccc21 | 1050 s |
| O=C1NC2=C(C(=O)N(CCC3=CCCCC3)C2)C(c2ccccc2F)N1 (stereo not drawn) | 684 s |
| Cc1ccc(-n2cc(C(=O)NCc3ccco3)nn2)cc1C | 854 s |
| CCc1nnc2ccc(-c3noc(-c4cc(Cl)ccc4F)n3)cn12 | 1010 s |
| O=C(NCCCN1CCCC1)c1ccc(-c2ccc(N3CCSCC3)nc2)cc1 | 574 s |
| Oc1ccc(Nc2nc(-c3ccccc3)cs2)cc1 | 818 s |
| O=C(Nc1cccnc1)N1CCC(Cc2cccc(Oc3ccc(C(F)(F)F)cn3)c2)CC1 | 866 s |
| O=C(c1ccccc1)N1CCc2ccc(NS(=O)(=O)c3cccs3)cc2C1 | 759 s |
| Cc1cccc(N2CCN([C@H]3CS(=O)(=O)C[C@@H]3S(=O)(=O)c3ccccc3)CC2)c1C | 1060 s |
| Cn1cnc(S(=O)(=O)N2CCOc3ccc(CN4CCc5ccccc5C4)cc3C2)c1 | 518 s |
| CCN(CC)CCCNC(=O)C1CCCN(c2ncc(-c3cccc(F)c3)cn2)C1 (stereo not drawn) | 677 s |
| CCOc1ccccc1CN1CCO[C@@H](COC)[C@@H]1c1ccccc1 | 699 s |
| COc1ccc(C2CC(=O)N(c3ccc(F)c(F)c3)C(=O)C2)cc1 | 910 s |

Continued, values first:

| RP-LC retention time | SMILES |
| --- | --- |
| 686 s | Cc1ccc(C(=O)Nc2ccc(N3CCN(C4CCCC4)C3=O)nc2)cc1N1CCCC1=O |
| 835 s | COc1ccc(C)cc1NC(=O)N1CCCC1c1cc(C)no1 (stereo not drawn) |
| 958 s | O=C(Nc1ccccc1F)C1CCN(S(=O)(=O)c2cc(-c3noc(C4CCC4)n3)cs2)CC1 |
| 891 s | Cc1ccc(C)c(S(=O)(=O)N2CCC(c3nc(C(=O)N4CCOCC4)c(C)o3)CC2)c1 |
| 797 s | Cc1cc(=O)n(CC(=O)Nc2cccc(Cl)c2)c(N(C)Cc2ccccc2)n1 |
| 1410 s | Cc1cccc(-c2nc(C3CCN(S(=O)(=O)c4ccc5c(c4)CCCC5)CC3)no2)c1 |
| 862 s | O=C(Cc1ccc(Cl)cc1)NCC(=O)N1CCCc2ccccc21 |
| 556 s | CCN(CC)CCNC(=O)c1cc2n(n1)CCCN(Cc1ccc(F)cc1)C2=O |
| 704 s | CN(CC1CCOC1)C(=O)Nc1cc(F)ccc1F (stereo not drawn) |
| 957 s | Cc1cccc(C(C)C)c1NC(=O)C1CCN(S(C)(=O)=O)c2ccccc2O1 (stereo not drawn) |
| 657 s | CC1Cc2cc(-c3cc(CC(=O)Nc4nc5ccccc5[nH]4)no3)ccc2O1 (stereo not drawn) |
| 875 s | COc1ccc(CCNC(=O)c2cccc3c2C(=O)N(CC2CCCO2)C3)c(OC)c1OC (stereo not drawn) |
| 538 s | O=C(NC1CC1)C1CCCN(C(=O)c2cc(-c3ccncc3)n[nH]2)C1 (stereo not drawn) |
| 572 s | O=C(NCc1cccs1)C1CCN(C(=O)c2cc(-c3ccncc3)n[nH]2)CC1 |
| 619 s | O=C(NC1CC1)C1CCCN(C(=O)c2ccccc2)C1 (stereo not drawn) |
| 803 s | CN1CCCc2cc(C(CNC(=O)C(=O)NCCC3=CCCCC3)N3CCCC3)ccc21 (stereo not drawn) |
| 1310 s | CC1=C(C(=O)Nc2cc(Cl)ccc2C(=O)NC2CCC(C)CC2)SCCO1 (stereo not drawn) |
| 1040 s | Cc1[nH]c(C(=O)N2CCN(c3ccccc3F)CC2)c(C)c1S(=O)(=O)N1CCC(C)CC1 |
| 1000 s | CCn1c(=O)c(N2CCN(C(=O)Nc3ccc(Br)cc3F)CC2)nc2cccnc21 |

| RP-LC retention time | SMILES |
| --- | --- |
| 705 s | Cc1ccc(C)c(NC(=O)N(C)CC2CCOC2)c1 (stereo not drawn) |
| 745 s | O=C(c1nccc2ccccc12)N1CCC(c2noc(C3CC3)n2)C1 (stereo not drawn) |
| 710 s | O=C(NC1CCCCCC1)C1CCN(c2cc(N3CCSCC3)ncn2)CC1 |
| 917 s | Cc1cc(C)cc(NC(=O)C(C)C2CCN(C(=O)Nc3ccc(F)cc3)CC2)c1 (stereo not drawn) |
| 632 s | CNC(=O)C1CCCN(c2nc3ncn(CC(=O)NCc4ccc(OC)cc4)c(=O)c3s2)C1 (stereo not drawn) |
| 673 s | COc1cc(N)c(Cl)cc1C(=O)CCC1CCN(CCNS(C)(=O)=O)CC1 |
| 750 s | O=C(c1ccc(OCC2CCCN2C(=O)C2CCCC2)cc1)N1CCOCC1 (stereo not drawn) |
| 828 s | Cc1cccc(S(=O)(=O)Nc2ccc(C3(C(=O)NCC4CCCO4)CC3)cc2)c1 (stereo not drawn) |
| 881 s | CCOC(=O)C1CCN(C(=O)c2nnc(-c3ccc(S(=O)(=O)N4CCCC4)cc3)o2)CC1 |
| 815 s | Cc1cccc(NC(=O)C2CCN(S(=O)(=O)c3ccc4c(c3)sc(=O)n4C(C)C)CC2)n1 |
| 742 s | Cc1cc(C)cc(C(=O)NC2CCN(c3cc(-c4cccs4)[nH]n3)C2)c1 (stereo not drawn) |
| 896 s | COC(=O)c1ccc2c(=O)n(-c3ccc(OC)cc3)c(N3CCOCC3)nc2c1 |
| 802 s | Cc1ccc(S(=O)(=O)N2CCCC(Cn3cnc4cccnc43)C2)cc1F (stereo not drawn) |
| 714 s | Cc1ccc(C(=O)c2cnc3cc4c(cc3c2N2CCOCC2)OCO4)cc1C |
| 1040 s | Cc1cc(C)cc(C(=O)N2CCCC(C(=O)NC3CCCCCCC3)C2)c1 (stereo not drawn) |
| 1130 s | CCCOc1nc2ccccc2nc1N1CCCC(C(=O)Nc2ccc(F)c(Cl)c2)C1 (stereo not drawn) |
| 984 s | Cc1ccc(NC(=O)N2CCCC(C)(C(=O)NCc3ccccc3C)C2)c(Cl)c1 (stereo not drawn) |
| 627 s | CCc1nc2cc3c(cc2n1CC(=O)Nc1ccccc1OC)OCCO3 |
